Target: recombinant β-secretase (memapsin 2, BACE 1) (Homo sapiens, UniProt P56817)
Test: BACE 1 inhibitory activity against recombinant β-secretase
Format: biochemical
Conditions: for BACE 1 inhibitory activity (in words): recombinant β-secretase

Chain of recombinant β-secretase (memapsin 2, BACE 1) (P56817 46-501): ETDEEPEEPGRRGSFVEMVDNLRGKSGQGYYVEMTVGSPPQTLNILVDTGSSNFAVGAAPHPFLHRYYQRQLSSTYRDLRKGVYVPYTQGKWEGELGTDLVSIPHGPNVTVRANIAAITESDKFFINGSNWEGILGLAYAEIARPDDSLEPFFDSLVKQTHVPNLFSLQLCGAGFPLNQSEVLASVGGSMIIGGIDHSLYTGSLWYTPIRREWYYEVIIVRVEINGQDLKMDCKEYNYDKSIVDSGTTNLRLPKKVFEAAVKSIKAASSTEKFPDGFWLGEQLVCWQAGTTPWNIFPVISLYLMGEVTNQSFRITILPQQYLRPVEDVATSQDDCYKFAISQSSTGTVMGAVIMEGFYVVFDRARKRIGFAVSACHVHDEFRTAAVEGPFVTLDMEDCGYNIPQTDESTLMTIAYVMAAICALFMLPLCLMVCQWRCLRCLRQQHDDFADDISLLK

Compound | BACE 1 inhibitory activity (in words) | further results
CCC[C@H](O)[C@H](NC[C@H](Cc1ccccc1)NC(=O)c1cc2c3c(c1)c(CC)cn3CCS(=O)(=O)N2C)C(=O)NCC(C)C [Inhibitor 19] |  | improvement in the potency (BACE 1) (compared with inhibitor 18): around 18 fold
CC(C)CNC[C@@H](NC[C@H](Cc1ccccc1)NC(=O)c1cc(C(=O)N[C@H](C)c2ccccc2)cc(N(C)S(C)(=O)=O)c1)[C@H](C)O [Inhibitor 9] | total loss in potency | 
CCC[C@H](O)[C@H](NC[C@H](Cc1ccccc1)NC(=O)c1cc2c3c(c1)c(CC)cn3CC(C)(C)S(=O)(=O)N2C)C(=O)NCC(C)C [Inhibitor 20] |  | potency enhancement (BACE 1) (over unsubstituted inhibitor 19): > 10 fold
CC(C)CN(C)C(=O)[C@@H](NC[C@H](Cc1ccccc1)NC(=O)c1cc(C(=O)N[C@H](C)c2ccccc2)cc(N(C)S(C)(=O)=O)c1)[C@H](C)O [Inhibitor 7] | abolished all BACE 1 inhibitory activity | 

Source: article PMC3493683 (Journal of medicinal chemistry, 2012)
